According to US7452885B2, “Amino-5-(6-membered)heteroarylimidazolone compounds and the use thereof for β-secretase modulation” (Wyeth, priority 2005, dated 2008):
Where two headings read alike, the source gives them in different places.

Legend:
human BACE1 = human BACE1 (Homo sapiens, UniProt P56817); experiment: Fluorescent kinetic assay, BACE-1 (Example 114); type: biochemical
Description: Evaluation of BACE-1 Binding Affinity of Test Compounds
Fluorescent Kinetic Assays
Dilution and mixing steps: total reaction volume: 100 μL
100 μM substrate dilution in 1×PBS was prepared, and
Fluorescence Readings: Readings at λex 320 nm and εem 420 nm are taken every 40 sec for 30 min at room temperature and the linear slope for substrate cleavage rate (vi) determined.

[1] = 10 nM human BACE1, 25 μM substrate WABC-6, 50 mM Na-Acetate pH 4.5, room temperature, read-out: BACE-1 (IC50 μM)

Chain of human BACE1 (P56817 46-501): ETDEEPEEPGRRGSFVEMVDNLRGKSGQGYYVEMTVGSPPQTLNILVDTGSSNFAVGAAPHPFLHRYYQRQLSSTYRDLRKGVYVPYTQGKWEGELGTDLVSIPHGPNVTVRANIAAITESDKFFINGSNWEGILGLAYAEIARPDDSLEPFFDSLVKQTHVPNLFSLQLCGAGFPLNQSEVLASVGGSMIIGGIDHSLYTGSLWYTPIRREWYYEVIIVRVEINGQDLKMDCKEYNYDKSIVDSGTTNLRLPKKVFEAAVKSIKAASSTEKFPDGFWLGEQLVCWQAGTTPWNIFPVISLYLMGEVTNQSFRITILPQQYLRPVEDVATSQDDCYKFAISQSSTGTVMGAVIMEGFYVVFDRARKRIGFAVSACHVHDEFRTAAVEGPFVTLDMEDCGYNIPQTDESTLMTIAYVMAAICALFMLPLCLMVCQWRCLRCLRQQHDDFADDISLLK

melting point [°C] | IC50 (human BACE1) [µM] | IC50 (human BACE1; [1]) [µM] | SMILES
138 to 141 | 0.01 to 0.1 | – | Cc1cc(C2(c3cccc(-c4cnccn4)c3)N=C(N)N(C)C2=O)ccn1 (stereo not drawn) [Example 66]
155 to 157 | – | 0.01 to 0.1 | CCc1cc(C2(c3ccc(F)c(-c4cncc(F)c4)c3)N=C(N)N(C)C2=O)cc(CC)n1 (stereo not drawn) [Example 104, 2-Amino-5-(2,6-diethyl-pyridin-4-yl)-5-[4-fluoro-3-(5-fluoropyridin-3-yl)-phenyl]-3-methyl-3,5-dihydro-imidazol-4-one]
148 to 150 | > 1 | – | CN1C(=O)C(c2ccncc2)(c2cccc(-c3cc[nH]n3)c2)N=C1N (stereo not drawn) [Example 47]
220 to 222 | 0.11 to 1 | – | CN1C(=O)C(c2ccncc2)(c2cccc(-c3ccc(C#N)s3)c2)N=C1N (stereo not drawn) [Example 50]
263 to 265 | 0.11 to 1 | – | CN1C(=O)C(c2ccncc2)(c2cccc(-c3cccc(O)c3)c2)N=C1N (stereo not drawn) [Example 35]
217 to 219 | 0.01 to 0.1 | – | CCc1cc(C2(c3cccc(-c4cccnc4)c3)N=C(N)N(C)C2=O)ccn1 (stereo not drawn) [Example 63]
237 to 238 | 0.01 to 0.1 | – | CN1C(=O)C(c2cccc(-c3cccnc3F)c2)(c2ccncc2F)N=C1N (stereo not drawn) [Example 58]
213 to 215 | 0.01 to 0.1 | – | CN1C(=O)C(c2ccncc2)(c2cccc(-c3cc(C#N)ccc3F)c2)N=C1N (stereo not drawn) [Example 41]
138 to 140 | 0.01 to 0.1 | – | CCc1cc(C2(c3cccc(-c4cnccn4)c3)N=C(N)N(C)C2=O)ccn1 (stereo not drawn) [Example 67]
193 to 195 | – | > 1 | CN1C(=O)C(c2ccncc2)(c2ccc(OC(F)F)cc2)N=C1N (stereo not drawn) [Example 112, 2-amino-5-[4-(difluoromethoxy)phenyl]-3-methyl-5-pyridin-4-yl-3,5-dihydro-4H-imidazol-4-one]
130 to 134 | – | 0.11 to 1 | CCc1cc(C2(c3cccc(-c4cnccn4)c3)N=C(N)N(C)C2=O)cc(C)n1 (stereo not drawn) [Example 86]
243 to 245 | 0.11 to 1 | – | COc1ncccc1-c1cccc(C2(c3ccncc3)N=C(N)N(C)C2=O)c1 (stereo not drawn) [Example 49]
107 to 112 | – | 0.11 to 1 | CCc1cc(C2(c3cccc(-c4cc(F)ccc4F)c3)N=C(N)N(C)C2=O)cc(CC)n1 (stereo not drawn) [Example 92]
68 to 70 | 0.11 to 1 | – | CCc1cc(C2(c3cccc(OCC4CC4)c3)N=C(N)N(C)C2=O)cc(CC)n1 (stereo not drawn) [Example 72]
233 to 235 | 0.01 to 0.1 | – | COc1ccc(F)cc1-c1cccc(C2(c3ccncc3)N=C(N)N(C)C2=O)c1 (stereo not drawn) [Example 39]
120 to 122 | 0.11 to 1 | – | CN1C(=O)C(c2ccncc2)(c2cccc(-c3cc(F)cnc3Cl)c2)N=C1N (stereo not drawn) [Example 42]
212 to 214 | – | 0.11 to 1 | CN1C(=O)C(c2cccnc2)(c2cccc(-c3ccccc3)c2)N=C1N (stereo not drawn) [Example 27]
208 to 210 | 0.11 to 1 | – | CN1C(=O)C(c2ccncc2)(c2cccc(-c3cccc(OC(F)(F)F)c3)c2)N=C1N (stereo not drawn) [Example 54]
173 to 175 | – | > 1 | CN1C(=O)C(c2ccc(OC(F)F)cc2)(c2cccnc2)N=C1N (stereo not drawn) [Example 111, 2-amino-5-[4-(difluoromethoxy)phenyl]-3-methyl-5-pyridin-3-yl-3,5-dihydro-4H-imidazol-4-one]
199 to 201 | 0.11 to 1 | – | CN1C(=O)C(c2ccncc2)(c2cccc(-c3ccn(C)n3)c2)N=C1N (stereo not drawn) [Example 48]
184 to 190 | 0.11 to 1 | – | Cc1cc(C2(c3cccc(-c4cc(F)ccc4F)c3)N=C(N)N(C)C2=O)cc(C)n1 (stereo not drawn) [Example 76]
